How the values were obtained:
S1P1 = molecular target: T1, S1P1 (Homo sapiens, UniProt P21453); experiment: Tango β-arrestin recruitment assay in U2OS cells (Assay 2b); format: cell-based; conditions: read-out: Assay 2b EC50
T1 construct: host or cells: U2OS
Procedure, shortened: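 In this agonist-mode Tango assay, U2OS cells carrying S1P1 and the reporter were serum-starved 48 h, then exposed overnight at 37 °C to compound (10 points, 3-fold, top 1 μM, 1% DMSO). β-Lactamase F460/F530 ratio was normalized to 1 μM S1P, and EC50 was fitted.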

[1] = molecular target: T2, hS1PR5 (hEdg8) membrane protein (Homo sapiens, UniProt Q9H228); experiment: hS1P5R GTPγS binding assay (Assay 4); format: biochemical
T2 construct: expressed in transfected cells; host or cells: CHO
Procedure, shortened: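 Membranes (5 μg) from CHO cells expressing hS1PR5, incubated 1 h at room temperature with 30 μM GDP, 0.1 nM [35S]GTPγS, 0.25% fatty acid free BSA and serially diluted compound in pH 7.9 Tris buffer with MgCl2. WGA SPA beads added for another 1 h, then bound [35S]GTPγS counted by scintillation.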

S1P3 = molecular target: T3, S1P3 (Homo sapiens, UniProt Q99500); experiment: S1P3 Tango β-arrestin recruitment assay in HEK293 cells (Assay 5); format: cell-based; conditions: read-out: Assay 5 EC50
T3 construct: host or cells: HEK293 (transient transfection)
Procedure, shortened: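 HEK293 cells transiently expressing S1P3 fused via TEV-cleavable linker to tTA, with β-arrestin2–TEV, treated 16-18 h at 37 °C with compounds (top 10 μM, 10-point 3-fold, 1% DMSO). Luciferase reporter luminescence normalised to DMSO background and 5 μM S1P control as percent activity; EC50 from concentration-response curves.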

[2] = molecular target: T4, hS1P1R (hEdg1) membrane protein (Homo sapiens, UniProt P21453); experiment: hS1P1R GTPγS binding assay (Assay 3a); format: biochemical
T4 construct: purchased Lonza
Procedure, shortened: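 Membranes (4 μg) expressing hS1P1R incubated 1 h at room temperature with 30 μM GDP, 0.1 nM [^35S]GTPγS, 0.25% fatty acid free BSA and serially diluted agonist in Tris-HCl pH 7.9/NaCl/MgCl2/EGTA buffer. Bound [^35S]GTPγS captured on WGA SPA beads (further 1 h) and counted.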

circulating lymphocytes = experiment: Lymphocyte PD assay in rats; format: in vivo, rat; conditions: 24 hours after oral single dose at 3 mg/kg, Female CD rats (Sprague Dawley), compared to vehicle-only group
Description: Suppression of circulating lymphocytes was assessed as a PD endpoint in jugular vein canulated Sprague Dawely (SD) rats 6-8 weeks of age and weighing approximately 200 g (Taconic Farms, Germantown, N.Y.). Prior initiating a study, rats were acclimated to the vivarium facility (12 h light cycle, 12 h dark cycle) for a minimum of 2 days. During a study, animals were provided food and water ad libitum and housed in a room conditioned at 70-75° F. and 60% relative humidity. All animals were examined daily for health assessment.
The Compound of the Invention were formulated and animals was dosed at a volume of 4 mL/kg. At indicated timepoints, whole blood was collected via jugular vein canulas into EDTA-coated tubes and hematology analysis was performed on an Abbott Cell-Dyn 3700 hematology analyzer. Readouts included white blood cells (total, differential, and % of total), neutrophils, lymphocytes, monocytes, eosinophils, basophils, RBC, HGB, hematocrit, mean corpuscule volume, mean corpuscule HGB concentration, RBC distribution width, platelets, and mean platelet volume.

T2 sequence (Q9H228 whole entry): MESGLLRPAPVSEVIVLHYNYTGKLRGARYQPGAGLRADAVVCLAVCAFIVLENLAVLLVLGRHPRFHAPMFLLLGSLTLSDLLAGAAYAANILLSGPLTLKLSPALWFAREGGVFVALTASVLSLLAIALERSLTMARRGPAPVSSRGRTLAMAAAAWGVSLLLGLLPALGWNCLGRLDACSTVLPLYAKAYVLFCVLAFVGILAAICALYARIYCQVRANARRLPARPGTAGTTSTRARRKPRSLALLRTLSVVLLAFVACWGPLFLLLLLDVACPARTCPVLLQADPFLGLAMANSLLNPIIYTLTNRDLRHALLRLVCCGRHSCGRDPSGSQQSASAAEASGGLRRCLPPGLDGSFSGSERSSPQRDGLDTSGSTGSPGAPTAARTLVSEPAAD
T4 sequence (P21453 whole entry): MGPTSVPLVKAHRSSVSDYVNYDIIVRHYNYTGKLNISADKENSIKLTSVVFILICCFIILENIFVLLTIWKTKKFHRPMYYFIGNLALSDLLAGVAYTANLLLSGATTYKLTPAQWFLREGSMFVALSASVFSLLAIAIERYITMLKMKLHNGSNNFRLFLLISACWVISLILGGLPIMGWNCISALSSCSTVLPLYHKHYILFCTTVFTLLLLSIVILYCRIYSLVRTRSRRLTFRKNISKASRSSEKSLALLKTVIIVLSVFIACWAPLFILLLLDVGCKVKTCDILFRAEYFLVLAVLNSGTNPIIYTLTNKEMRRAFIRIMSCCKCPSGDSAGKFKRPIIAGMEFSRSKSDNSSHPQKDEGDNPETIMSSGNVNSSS
T3 sequence (P32121 whole entry): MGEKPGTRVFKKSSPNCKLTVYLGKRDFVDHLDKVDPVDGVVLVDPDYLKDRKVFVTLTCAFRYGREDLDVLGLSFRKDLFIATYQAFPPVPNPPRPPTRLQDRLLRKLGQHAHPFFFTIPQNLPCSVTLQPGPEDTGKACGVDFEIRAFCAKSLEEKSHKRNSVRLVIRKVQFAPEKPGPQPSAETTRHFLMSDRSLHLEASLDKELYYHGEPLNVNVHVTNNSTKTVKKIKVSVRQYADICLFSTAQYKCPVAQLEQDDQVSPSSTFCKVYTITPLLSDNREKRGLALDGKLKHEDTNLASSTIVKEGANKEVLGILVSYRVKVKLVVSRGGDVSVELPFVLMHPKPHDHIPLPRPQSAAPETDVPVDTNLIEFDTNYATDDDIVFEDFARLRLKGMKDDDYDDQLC
T3 sequence (Q99500 whole entry): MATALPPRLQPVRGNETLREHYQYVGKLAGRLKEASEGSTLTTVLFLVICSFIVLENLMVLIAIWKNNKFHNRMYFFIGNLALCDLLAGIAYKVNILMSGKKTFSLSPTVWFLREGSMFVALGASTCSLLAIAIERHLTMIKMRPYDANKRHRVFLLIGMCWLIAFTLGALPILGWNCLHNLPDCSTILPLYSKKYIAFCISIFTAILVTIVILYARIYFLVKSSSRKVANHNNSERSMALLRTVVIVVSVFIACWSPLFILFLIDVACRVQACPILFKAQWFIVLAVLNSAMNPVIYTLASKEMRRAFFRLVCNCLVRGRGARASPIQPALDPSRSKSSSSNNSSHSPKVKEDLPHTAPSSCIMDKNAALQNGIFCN
T1 sequence (P32121 whole entry): as the sequence (P32121 whole entry) above
T1 sequence (P21453 whole entry): as the sequence (P21453 whole entry) above

| SMILES | EC50 (S1P1) [nM] | EC50 [1] [nM] | EC50 (S1P3) [nM] | EC50 [2] [nM] | Lymphocyte Counts (p < 0.05) (circulating lymphocytes) [%] |
| --- | --- | --- | --- | --- | --- |
| CC(C)Oc1ccc(-c2nnc(-c3cc(F)c(OC[C@H](N)CO)cc3Cl)s2)cc1C#N [Entry 37, 5-[5-(4-{[(2R)-2-amino-3-hydroxypropyl]oxy}-2-chloro-5-fluorophenyl)-1,3,4-thiadiazol-2-yl]-2-[(1-methylethyl)oxy]benzonitrile] | ≤ 10 | 10 to 50 | > 10000 | ≤ 10 | −93 |
| Cc1cc(-c2nnc(-c3cc(F)c(OC[C@H](N)[C@@H](C)O)cc3Cl)s2)cc(NC(C)C)n1 [Entry 62, (2R,3S)-3-amino-4-{[5-chloro-2-fluoro-4-(5-{2-methyl-6-[(1-methylethyl)amino]pyridin-4-yl}-1,3,4-thiadiazol-2-yl)phenyl]oxy}butan-2-ol] | ≤ 10 | 10 to 50 | > 10000 | ≤ 10 | −79 |
| CC(C)Oc1ccc(-c2nnc(-c3cc(F)c(OC[C@H](N)[C@H](C)O)cc3Cl)s2)cc1Cl [Entry 72, (2S,3S)-3-amino-4-{[5-chloro-4-(5-{3-chloro-4-[(1-methylethyl)oxy]phenyl}-1,3,4-thiadiazol-2-yl)-2-fluorophenyl]oxy}butan-2-ol] | ≤ 10 | 50 to 250 | > 10000 | 10 to 50 | −86 |
| CC(C)Oc1ccc(-c2nnc(-c3cc(F)c(OC[C@H](N)[C@@H](C)O)cc3Cl)s2)cc1Cl [Entry 73, (2R,3S)-3-amino-4-{[5-chloro-4-(5-{3-chloro-4-[(1-methylethyl)oxy]phenyl}-1,3,4-thiadiazol-2-yl)-2-fluorophenyl]oxy}butan-2-ol] | ≤ 10 | 10 to 50 | > 10000 | ≤ 10 | −89 |

More lines, main results first:

| EC50 (S1P1) [nM] | EC50 [1] [nM] | EC50 (S1P3) [nM] | EC50 [2] [nM] | SMILES | Lymphocyte Counts (p < 0.05) (circulating lymphocytes) [%] |
| --- | --- | --- | --- | --- | --- |
| 10 to 50 | 10 to 50 | > 10000 | 10 to 50 | CC(C)Oc1ccc(-c2nnc(-c3cc(F)c(OC[C@H](N)CO)cc3Cl)s2)cc1Cl [Entry 1, (2R)-2-amino-3-{[5-chloro-4-(5-{3-chloro-4-[(1-methylethyl)oxy]phenyl}-1,3,4-thiadiazol-2-yl)-2-fluorophenyl]oxy}propan-1-ol] | −80 |
| 10 to 50 | 10 to 50 | > 10000 | ≤ 10 | CC(C)Oc1ccc(-c2nnc(-c3cc(F)c(OC[C@H](N)CO)cc3Cl)s2)cc1Br [Entry 2, (2R)-2-amino-3-{[4-(5-{3-bromo-4-[(1-methylethyl)oxy]phenyl}-1,3,4-thiadiazol-2-yl)-5-chloro-2-fluorophenyl]oxy}propan-1-ol] | −93 |
| ≤ 10 | 250 to 2800 | > 10000 | 250 to 2800 | CC(C)Nc1ccc(-c2nnc(-c3cc(F)c(OCC(N)CO)cc3Cl)s2)cn1 (stereo not shown) [Entry 44, 2-amino-3-{[5-chloro-2-fluoro-4-(5-{6-[(1-methylethyl)amino]pyridin-3-yl}-1,3,4-thiadiazol-2-yl)phenyl]oxy}propan-1-ol] | −94 |
| ≤ 10 | 250 to 2800 | > 10000 | 250 to 2800 | CC(C)Nc1ccc(-c2nnc(-c3cc(F)c(OC[C@@H](N)CO)cc3Cl)s2)cn1 [Entry 77, (2S)-2-amino-3-{[5-chloro-2-fluoro-4-(5-{6-[(1-methylethyl)amino]pyridin-3-yl}-1,3,4-thiadiazol-2-yl)phenyl]oxy}propan-1-ol] | −94 |

Source: patent publication US20100249071A1, “Modulators of S1P and Methods of Making And Using” (Exelixis, Inc., priority 2009, published 2010)
